Source: US6395745B1, “Alkaloid halide salts of swainsonine and methods of use” (priority 1997, dated 2002)

Experiments:
[1] = target: T1, lysosomal mannosidase (Homo sapiens, UniProt O00754); assay: Inhibition of lysosomal mannosidase in vitro; assay type: biochemical; conditions: pH 5.0, 60 min at 37° C.
T1 sequence (O00754 50-1011): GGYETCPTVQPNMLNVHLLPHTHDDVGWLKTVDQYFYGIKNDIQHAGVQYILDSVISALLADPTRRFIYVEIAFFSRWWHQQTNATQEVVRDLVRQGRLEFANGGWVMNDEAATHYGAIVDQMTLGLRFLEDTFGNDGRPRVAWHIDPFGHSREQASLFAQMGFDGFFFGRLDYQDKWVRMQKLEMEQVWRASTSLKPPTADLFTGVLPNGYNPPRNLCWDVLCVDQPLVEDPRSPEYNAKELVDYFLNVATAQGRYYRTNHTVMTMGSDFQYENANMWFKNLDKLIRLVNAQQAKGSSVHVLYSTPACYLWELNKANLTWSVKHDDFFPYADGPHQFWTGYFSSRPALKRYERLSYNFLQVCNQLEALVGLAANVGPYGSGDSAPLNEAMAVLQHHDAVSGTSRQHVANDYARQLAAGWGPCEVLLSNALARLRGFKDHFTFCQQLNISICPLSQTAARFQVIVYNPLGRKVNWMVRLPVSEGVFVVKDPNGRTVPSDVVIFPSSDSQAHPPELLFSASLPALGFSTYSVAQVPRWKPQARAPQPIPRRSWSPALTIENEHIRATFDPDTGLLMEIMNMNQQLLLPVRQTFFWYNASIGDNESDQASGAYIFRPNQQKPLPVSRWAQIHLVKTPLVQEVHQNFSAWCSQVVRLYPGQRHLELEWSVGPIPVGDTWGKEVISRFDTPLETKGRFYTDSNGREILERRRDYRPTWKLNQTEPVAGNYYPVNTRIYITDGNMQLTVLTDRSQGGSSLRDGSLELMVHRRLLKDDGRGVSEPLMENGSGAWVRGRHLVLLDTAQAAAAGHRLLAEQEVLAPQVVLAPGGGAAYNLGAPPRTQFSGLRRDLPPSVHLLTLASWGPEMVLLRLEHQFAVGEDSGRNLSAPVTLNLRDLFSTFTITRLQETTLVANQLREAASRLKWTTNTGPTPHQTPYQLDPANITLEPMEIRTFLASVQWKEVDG
Procedure: The effects of the compounds of the invention on lysosomal mannosidase were measured by adding (10 μl) of the compounds into 96 well Elisa plates followed by the addition of 200 mM sodium acetate pH 5.0 and 25 μl of 10 mM p-nitrophenyl α-D-mannospyranoside. 15 μl of lysosomal mannosidase ( about 8 mM/mL) was added to each well and the plates were incubated for 60 min at 37° C. The reaction was stopped by the addition of 50 μl of 0.5M sodium carbonate and formation of p-nitrophenol was measured with a plate set at 405.

[2] = system: SP1.A3a mouse mammary adenocarcinoma; assay: SP1.A3a tumor growth in mice, Alzet mini-osmotic pump; assay type: in vivo, CBA/J mice; conditions: for difference in mean tumour volume between control and treatment groups: 0.5 mg/kg/day via osmotic pump over 28 days
Procedure: A metastatic subclone of the SP1 tumor line (A3a), mouse mammary adenocarcinoma was maintained in exponential growth in RPMI 1640 containing 10% FBS. The cells were harvested and resuspended at 1×10^6/ml or 1×10^7/ml in PBS and 0.1 ml containing 1×10^5 injected S.C. into the right flank of 7 week old female CBA/J mice (Jackson Laboratories). Alzet mini-osmotic pumps were implanted subcutaneously, on the opposite side of anesthetized animals. The pumps were primed to deliver saline (control) or 0.5 mg/kg/day of swainsonine hydrochloride over 28 days. Mice were monitored for the appearance of a palpable tumour and subsequent tumor growth was measured using bernier callipers. Tumor weights and the number of lung metastasis were measured on day 42.

[3] = system: granulocyte-macrophage progenitor cells (CFU-GM); assay: Murine bone marrow progenitor cell assay in methylcellulose, CFU-GM; assay type: cell-based, C57BL/6 mouse; conditions: FIG. 11
Procedure: The healthy and GD0039 treated mice were euthanized by CO2 asphyxiation. Bone marrow (BM) cell suspensions were prepared under sterile conditions by flushing both femurs and tibiae with IMDM/FBS using a 26 gauge needle. Single cell suspensions were made up to 10.0 ml IMDM/FBS. The concentration of nucleated cells in each suspension was determined by triplicate counts on a hemocytometer. A portion of the cells was further diluted in media to the appropriate concentration before plating for the progenitor assay.
Colony-forming units (CFUs) were estimated by the methylcellulose method. One milliliter suspensions, containing 2×10^5 nucleated BM cells, in 0.1 ml of IMDM and 0.9 ml MethoCult (M3330), were plated in triplicate in 35 mm tissue culture dishes. Swainsonine hydrochloride or swainsonine were added to certain plates, in 0.1 ml of IMDM at concentrations of 30 μg/ml and 3 μg/ml, which gave final concentrations of […]. The MethoCult M3330 contains 30% FBS and 10 μg/ml erythropoietin and is designed for the growth of early erythroid progenitor cells (CFU-E), which were scored after 3 days of incubation at 37° C. in a humidified atmosphere containing 5% CO2. […] Colonies containing more than 20 cells were scored using an inverted microscope with brightfield optics and 40× or 100× magnification. […]

SMILES: Cl.O[C@H]1[C@H]2[C@H](O)CCCN2C[C@@H]1O [swainsonine hydrochloride, (−)-(1S,2S,8R,8aR)-1,2,8-trihydroxyoctahydro-indolizidine hydrochloride salt]
- IC50 [1]: 0.045 ± 0.01 µM
- difference in mean tumour volume between control and treatment groups ([2]; day 29 as printed): 27%
- difference in mean tumour volume between control and treatment groups ([2]; day 32): 35%
- difference in mean tumour volume between control and treatment groups ([2]; day 42): 32%
- mean tumour weight ([2]; 0.5 mg/kg/day via osmotic pump, 42 day sacrifice, control 7.35 g): 4.87 g
- incidence of lung metastasis, average ([2]; 0.5 mg/kg/day via osmotic pump, day 42 sacrifice, control 1.8): 0.25 nodules/mouse
- effect on granulocyte-macrophage progenitor cells in vitro [3]: stimulate
